From EP4678629A1, “IONIZABLE LIPID MOLECULE, PREPARATION METHOD THEREFOR AND USE THEREOF” (Maxirna (Shanghai) Pharmaceutical Co., Ltd., priority 2023, dated 2024) come the findings set out here.

For series [1], the system named is mice. In words: In vivo transfection with Fluc-mRNA lipid nanoparticle (LNP preparation), live imaging of fluorescence intensity. The settings on record: 0.5 mg/kg; for fluorescence intensity: intravenous and intramuscular injection. Here is the method:
According to the method described in Example II , LNP lipid nanoparticles of Fluc-mRNA (Maxirna FLuc mRNA, 1 mg/mL), SM-102 (CAS number: 2089251-47-6, A.V.T (Shanghai) Pharmaceutical Co., Ltd.), and positive control 1 (US10195156B2, it was prepared according to the method described in the above embodiment, the main difference lay in replacing 2-((3-aminopropyl)amino)ethane-1-ol with 2-((2-aminoethyl)amino)ethane-1-ol, the structure was as shown in FIG. 1) were prepared respectively. Cholesterol (Chol), DSPC, DOPE, and DMG-PEG2000 were purchased from A.V.T (Shanghai) Pharmaceutical Co., Ltd. Mice were randomly selected, and the lipid nanoparticles were injected intravenously and intramuscularly (4 mice per group) at a dosage of 0.5 mg/kg. Tris and Fluc-mRNA were directly injected as controls. After 6 hours, 200 ul of 10 mg/ml D-luciferin potassium salt was respectively injected into each mouse through the tail vein. After 10 minutes, the mice were placed under a live imaging system to observe the total fluorescence intensity of each mouse and take photos for recording. After 24 hours, the mice were placed under the live imaging system to observe the total fluorescence intensity of each mouse and take photos for recording. Table 2: Preparation parameters of each LNP
(§1) LNP lipid nanoparticles of Fluc-mRNA were respectively prepared using the method described in Example II. Mice were randomly selected, and the lipid nanoparticles were injected intramuscularly (2 mice per group) at a dosage of 0.5 mg/kg. Tris was directly injected as a control. After 6 hours, 200 ul of 10 mg/ml D-luciferin potassium salt was respectively injected into each mouse through the tail vein. After 10 minutes, the mice were placed under a live imaging system to observe the total fluorescence intensity of each mouse and take photos for recording. After 24 hours, the mice were placed under the live imaging system to observe the total fluorescence intensity of each mouse and take photos for recording. Table 3: Preparation parameters of each LNP
as §1, with “II .” for “II.”, “(3” for “(2”, “4:” for “3:”

Series [2] deals with DC2.4 cells. As to the kind of experiment: In vitro transfection of cells with eGFP-mRNA lipid nanoparticle (LNP preparation), fluorescence imaging and flow cytometry. Type of series: cell-based, mouse. The settings on record: DC2.4 cells, 200 ng of mRNA per well, after 24 hours; for Positive rate, %: eGFP positivity rate. The gist of the method:
(§2)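 Mouse bone marrow-derived DC2.4 dendritic cells seeded at 2 × 10^5 cells/well in DMEM with 10% FBS, transfected with eGFP-mRNA LNPs the next day at 37 °C, 5% CO2. After 24 hours, viability, eGFP-positive rate and mean fluorescence intensity read by fluorescence imaging and flow cytometry.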
(A flow cytometer gives signals particle by particle.)

Series [3] is described as follows: Encapsulation efficiency of the lipid nanoparticle (eGFP mRNA) by Ribogreen method. Type of series: physicochemical. The settings on record: LNP encapsulating eGFP mRNA, ionizable lipid/DOPE/cholesterol/DMG-PEG2000 50/10/48.25/1.25 mol%, N/P 12. In a few lines:
(§3)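 LNPs were made by microfluidic mixing of ionizable lipid/DOPE/cholesterol/DMG-PEG2000 (50/10/48.25/1.25 mol%) in ethanol with eGFP mRNA in 20 mM citrate pH 6.1, N/P 12, then ultrafiltered into DPBS and 0.2 µm filtered. Size and PDI by DLS at 173° backscatter; encapsulation by Ribogreen.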

Series [4] can be described thus: Size and polydispersity index (PDI) of the lipid nanoparticle by dynamic light scattering. To be noted: LNP encapsulating eGFP mRNA, ionizable lipid/DOPE/cholesterol/DMG-PEG2000 50/10/48.25/1.25 mol%, N/P 12; for Particle size: in nm (unit assumed). Format: physicochemical. In a few lines:
as §3

Series [5] is described as follows: In vitro transfection of cells with eGFP-mRNA lipid nanoparticle (LNP preparation), fluorescence imaging and flow cytometry. Format: cell-based, mouse. The settings on record: mouse, dc2.4 cells, 200 ng of mRNA per well, after 24 hours; read-out: Cell viability, %. In a few lines:
as §2

Where [6] appears, read: Fluc-mRNA LNP of Table 4 (DSPC), intramuscular, 6 and 24 hours.
The mark [7] stands for this setting: Fluc-mRNA LNP of Table 2 (DOPE), intramuscular.
[8] abbreviates: Fluc-mRNA LNP of Table 2 (DOPE), 6 and 24 hours.
Where [9] appears, read: Fluc-mRNA LNP of Table 3 (DSPC), intramuscular, 6 and 24 hours.

With `CCCCC/C=C\C/C=C\CCCCCCCCOC(=O)CCCN(CCCO)CCCCN(CCCC(=O)OCCCCCCCC/C=C\C/C=C\CCCCC)CCCC(=O)OCCCCCCCC/C=C\C/C=C\CCCCC` [Example 89], in series [1] (setting [6]), the injection site entry is “superior to those of positive control 1 and SM-102”; the whole-body expression entry is “superior to those of positive control 1 and SM-102”. Moreover, the “Cell viability, %” value in series [2] (1440 min) is listed as 94.0%. The “Positive rate, %” value in series [2] worked out at 92.26%. Moreover, in series [3], the “Encapsulation rate, %” value was determined as 94.22%. In series [4], this compound registered a PDI of 0.09 and a Particle size of 96.38.
One may read the viability as a read-out of living cells in per cent, often relative to untreated cells. With `CCCCCCCCCCCOC(=O)CCCN(CCO)CCCN(CCCC(=O)OCCCCCCCCCCC)CCCC(=O)OCCCCCCCCCCC` [Example 12, Diundecyl 4,4'-((3-((2-hydroxyethyl)(4-oxo-4-(undecyloxy)butyl)amino)propyl)azanediyl)dibutanoate], in series [1] (setting [7]), the “expression in the chest and abdomen” value is given as “much lower than that of SM-102”; the “fluorescence intensity, intramuscular injection administration” value is “still maintain high fluorescence intensity”. Further, in series [1] (setting [8]), the fluorescence intensity result is “stronger than that of positive control 1 and comparable to SM-102”. In addition, the whole-body expression entry in series [1] (setting [9]) is given as “even better than SM-102”. Further, the viability at 24 h in series [5] turned out to be 81.2%. Besides, the “Positive rate, %” value in series [2] is 97.78%. For the same compound, in series [3], the “Encapsulation rate, %” value worked out at 90.54%. In series [4], the PDI is listed as 0.22 and the Particle size turned out to be 88.51.
Consider `CCCCCCCCCCCOC(=O)CCCCCCCN(CCO)CCCN(CCCCCCCC(=O)OCCCCCCCCCCC)CCCCCCCC(=O)OCCCCCCCCCCC` [Example 1, Diundecyl 8,8'-((3-((2-hydroxyethyl)(8-oxo-8-(undecyloxy)octyl)amino)propyl)azanediyl)dioctanoate], for which, in series [1] (setting [9]), the whole-body expression result is “even better than SM-102”. Also, in series [5], the viability at 24 h was found to be 92%. Moreover, the “Positive rate, %” value in series [2] was 91.23%. Further, in series [3], the “Encapsulation rate, %” value is given as 96.32%. Further, in series [4], the PDI was 0.18 and the Particle size stood at 59.34.
For `CCCCCCCCCCCOC(=O)CCCCCN(CCO)CCCN(CCCCCC(=O)OCCCCCCCCCCC)CCCCCC(=O)OCCCCCCCCCCC` [Example 11, Diundecyl 6,6'-((3-((2-hydroxyethyl)(6-oxo-6-(undecyloxy)hexyl)amino)propyl)azanediyl)dihexanoate], the “fluorescence intensity, intramuscular injection administration” value in series [1] (setting [7]) is “still maintain high fluorescence intensity”. In series [1] (setting [8]), the fluorescence intensity entry was “stronger than that of positive control 1 and comparable to SM-102”. The viability at 24 h in series [5] came out at 84.3%. Moreover, the “Positive rate, %” value in series [2] is 95.68%. Further, the “Encapsulation rate, %” value in series [3] turned out to be 90.99%. In series [4], this compound registered a PDI of 0.17 and a Particle size of 97.96.
